The values that follow come from US20120214862A1, “MODULATION OF FACTOR 7 EXPRESSION” (ISIS Pharmaceuticals, Inc., priority 2009, published 2012).

In the oligonucleotide strings, read from the 5' end, every base follows the letter of its sugar. An asterisk marks phosphorothioate; unmarked linkages are phosphodiester. Other units and linkages are bracketed, terminal groups are in braces. A string of capitals states the bases alone. e = 2'-O-(2-methoxyethyl) (MOE); [5mC] = 5-methylcytosine; d = 2'-deoxy (DNA)

This series relates to human Factor 7 mRNA. The series can be described thus: Antisense inhibition of human Factor 7 mRNA in HepB3 cells, lipofectin, 50 nM, real-time RT-PCR. It counts as cell-based. The following applies: for % Inhibition (human Factor 7 mRNA): 50 nM, ~24 h. The method in brief:
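4,000 cells/well; ~24 h exposure; RNA isolated; probe set RTS 2927; normalised to RIBOGREEN® total RNA; % inhibition vs untreated.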
Background: Real-time PCR tracks product formation cycle by cycle.

Setting [1] is: HepB3 cells, lipofectin, 50 nM antisense oligonucleotide, approximately 24 hours, primer probe set RTS 2927, relative to untreated control.
[2] abbreviates: HepB3 cells, gapmers (5-10-5, 3-14-3, 2-13-5 MOE) targeted to nucleobases 4868 to 4899 of SEQ ID NO: 1.
Setting [3] is: Example 1, HepB3 cells, lipofectin, relative to untreated control cells.
Setting [4] is: Example 6 microwalk, nucleobases 15098 to 15122 of SEQ ID NO: 1, HepB3, lipofectin.
Setting [5] is: Example 4, HepB3 cells, lipofectin, relative to untreated control.
Where [6] appears, read: HepB3 cells, gapmers targeted to nucleobases 11830 to 11869 of SEQ ID NO: 1 (Table 9).

For “416431 (antisense eA*eG*eG*eG*eA*dG*d[5mC]*d[5mC]*d[5mC]*dG*dG*d[5mC]*d[5mC]*dG*d[5mC]*eA*eG*e[5mC]*eT*e[5mC]) [compound 416431]”, the “% Inhibition of human Factor 7 mRNA levels” value under setting [1] was 25%.

On to “422201 (antisense eG*e[5mC]*e[5mC]*dT*dG*dA*dG*dG*d[5mC]*d[5mC]*dA*dG*d[5mC]*dA*dG*dA*dT*e[5mC]*eA*e[5mC]) [compound 422201]”, for which, where the note is “HepB3 cells, gapmers targeted to nucleobases 14707 to 14732 of SEQ ID NO: 1 (Table 11)”, the “% Inhibition of human Factor 7 mRNA levels” value is given as 71%.

Take “422145 (antisense eG*e[5mC]*e[5mC]*e[5mC]*eG*dA*dG*dT*dT*d[5mC]*dT*dG*d[5mC]*dA*dG*eG*eA*eG*e[5mC]*eG) [compound 422145]”: under setting [2], the “% Inhibition of human Factor 7 mRNA levels” value is recorded as 57%.

“407890 (antisense e[5mC]*eA*eG*eG*eG*dA*dG*d[5mC]*d[5mC]*d[5mC]*dG*dG*d[5mC]*d[5mC]*dG*e[5mC]*eA*eG*e[5mC]*eT) [compound 407890]”: the “% Inhibition (human Factor 7 mRNA)” value under setting [3] amounted to 60%.

With “407957 (antisense eG*eG*e[5mC]*e[5mC]*eT*dG*dG*dG*dA*dA*d[5mC]*dT*dT*dG*d[5mC]*eA*eT*eT*eT*eA) [compound 407957]”, under setting [3], the “% Inhibition (human Factor 7 mRNA)” value was 52%.

In the case of “422302 (antisense eA*eG*dG*dA*dG*d[5mC]*d[5mC]*d[5mC]*dG*dA*dG*dT*dT*d[5mC]*dT*eG*e[5mC]*eA*eG*eG) [compound 422302]”, under setting [2], the “% Inhibition of human Factor 7 mRNA levels” value came to 67%.

“422208 (antisense eG*e[5mC]*eA*d[5mC]*dA*d[5mC]*dA*dT*dG*dG*dA*dG*dT*d[5mC]*dA*dG*d[5mC]*eA*eT*e[5mC]) [compound 422208]”: the “% Inhibition (human Factor 7 mRNA)” value under setting [4] came to 56%.

Regarding “416536 (antisense e[5mC]*eG*eG*eG*eA*dA*dG*dG*d[5mC]*d[5mC]*dT*dG*d[5mC]*d[5mC]*d[5mC]*eT*eG*e[5mC]*eA*eG) [compound 416536]”, under setting [1], the “% Inhibition of human Factor 7 mRNA levels” value stood at 23%.

As for “416547 (antisense eA*eT*eG*eA*eA*dA*dT*dT*d[5mC]*dT*dA*d[5mC]*d[5mC]*dT*dA*eA*eA*eG*eA*eT) [compound 416547]”, the “% Inhibition of human Factor 7 mRNA levels” value under setting [1] was 0%.

On to “416460 (antisense e[5mC]*eA*e[5mC]*e[5mC]*eA*d[5mC]*dA*dT*dG*dG*dT*d[5mC]*dA*dG*dT*eG*eA*eG*eG*eA) [compound 416460]”, for which, under setting [1], the “% Inhibition of human Factor 7 mRNA levels” value is 49%.

For “422134 (antisense eG*e[5mC]*eA*e[5mC]*eA*d[5mC]*dA*dT*dG*dG*dA*dG*dT*d[5mC]*dA*eG*e[5mC]*eA*eT*e[5mC]) [compound 422134]”, the “% Inhibition (human Factor 7 mRNA)” value under setting [4] came out at 67%.

Regarding “422274 (antisense eT*eT*dA*d[5mC]*dT*dG*dA*dG*d[5mC]*dG*d[5mC]*dG*dG*dA*dA*eG*eA*eA*eG*eG) [compound 422274]”, the “% Inhibition (human Factor 7 mRNA)” value under setting [5] amounted to 24%.

As for “422157 (antisense eT*eG*eG*dT*d[5mC]*dA*dG*dG*dG*d[5mC]*dT*dG*dG*dT*dT*dT*dT*eG*eG*eA) [compound 422157]”, under setting [6], the “% Inhibition of human Factor 7 mRNA levels” value was 49%.

In the case of “422198 (antisense eG*eT*eT*dA*d[5mC]*dT*dG*dA*dG*d[5mC]*dG*d[5mC]*dG*dG*dA*dA*dG*eA*eA*eG) [compound 422198]”, the “% Inhibition (human Factor 7 mRNA)” value under setting [5] is reported as 50%.

Consider “416563 (antisense eG*e[5mC]*e[5mC]*eT*eG*d[5mC]*dA*dT*dT*dT*d[5mC]*d[5mC]*d[5mC]*dA*dT*eT*eG*eG*e[5mC]*eA) [compound 416563]”, for which the “% Inhibition of human Factor 7 mRNA levels” value under setting [1] was determined as 0%.

For “407927 (antisense eA*eG*eG*eT*eA*dA*dG*dG*dA*dG*dG*d[5mC]*dT*d[5mC]*dA*eG*e[5mC]*eT*eG*eG) [compound 407927]”, the “% Inhibition (human Factor 7 mRNA)” value under setting [3] was determined as 55%.

Regarding “407928 (antisense e[5mC]*eT*eT*eG*eG*d[5mC]*dT*dG*dA*dA*dG*dG*dG*dA*dG*eG*eT*eA*eA*eG) [compound 407928]”, the “% Inhibition (human Factor 7 mRNA)” value under setting [3] was determined as 55%.

With “422169 (antisense e[5mC]*eT*eG*dA*dG*dG*dA*dG*dA*d[5mC]*dA*dA*dT*dG*dG*dT*d[5mC]*eA*eG*eG) [compound 422169]”, the “% Inhibition of human Factor 7 mRNA levels” value under setting [6] is 56%.

Consider “407637 (antisense eG*eT*eA*e[5mC]*eT*dG*dG*dG*dA*dG*dA*d[5mC]*d[5mC]*d[5mC]*dT*eG*eG*eT*eG*eT) [compound 407637]”, for which the “% Inhibition (human Factor 7 mRNA)” value under setting [3] is reported as 71%.

For “407908 (antisense e[5mC]*e[5mC]*e[5mC]*e[5mC]*eA*dG*d[5mC]*d[5mC]*dG*d[5mC]*dT*dG*dA*d[5mC]*d[5mC]*eA*eA*eT*eG*eA) [compound 407908]”, the “% Inhibition (human Factor 7 mRNA)” value under setting [3] is listed as 47%.

Consider “422103 (antisense eG*e[5mC]*eT*eG*eA*dG*dG*dA*dG*dA*d[5mC]*dA*dA*dT*dG*eG*eT*e[5mC]*eA*eG) [compound 422103]”, for which, under setting [6], the “% Inhibition of human Factor 7 mRNA levels” value worked out at 38%.

Take “407630 (antisense e[5mC]*eA*e[5mC]*eA*eT*dG*dG*dT*d[5mC]*dA*dG*dT*dG*dA*dG*eG*eA*e[5mC]*e[5mC]*eA) [compound 407630]”: under setting [3], the “% Inhibition (human Factor 7 mRNA)” value stood at 29%.

As to “416486 (antisense eA*eT*eT*eG*eA*d[5mC]*dA*dA*dG*dG*dG*d[5mC]*dT*dG*dT*eG*eG*e[5mC]*eA*eG) [compound 416486]”, under setting [1], the “% Inhibition of human Factor 7 mRNA levels” value is 12%.

Regarding “422232 (antisense eG*eT*d[5mC]*dA*dG*dG*dG*d[5mC]*dT*dG*dG*dT*dT*dT*dT*eG*eG*eA*eG*eG) [compound 422232]”, the “% Inhibition of human Factor 7 mRNA levels” value under setting [6] turned out to be 41%.

As for “422265 (antisense eG*e[5mC]*dG*dG*dA*dA*dG*dA*dA*dG*dG*dG*dA*d[5mC]*dG*eG*eA*eA*eG*eG) [compound 422265]”, under setting [5], the “% Inhibition (human Factor 7 mRNA)” value was 34%.

Consider “422189 (antisense e[5mC]*eG*e[5mC]*dG*dG*dA*dA*dG*dA*dA*dG*dG*dG*dA*d[5mC]*dG*dG*eA*eA*eG) [compound 422189]”, for which, under setting [5], the “% Inhibition (human Factor 7 mRNA)” value is 0%.

Regarding “407905 (antisense e[5mC]*e[5mC]*eA*eG*eT*dT*d[5mC]*dT*dT*dG*dA*dT*dT*dT*dT*eG*eT*e[5mC]*eG*eA) [compound 407905]”, the “% Inhibition (human Factor 7 mRNA)” value under setting [3] came to 40%.

As to “416482 (antisense e[5mC]*eA*eT*eG*eG*dT*dG*dA*dT*dG*d[5mC]*dT*dT*d[5mC]*dT*eG*eA*eA*eT*eT) [compound 416482]”, the “% Inhibition of human Factor 7 mRNA levels” value stood at 64% under setting [1] and 64% (HepB3 cells, gapmers targeted to nucleobases 15188 to 15211 of SEQ ID NO: 1 (Table 13)).

Take “422178 (antisense eA*e[5mC]*e[5mC]*d[5mC]*dG*d[5mC]*d[5mC]*dG*dG*d[5mC]*dT*d[5mC]*dT*dG*d[5mC]*dT*d[5mC]*eA*eT*e[5mC]) [compound 422178]”: the “% Inhibition of human Factor 7 mRNA levels” value (HepB3 cells, gapmers targeted to nucleobases 13760 to 13789 of SEQ ID NO: 1 (Table 10)) worked out at 37%.

“407941 (antisense eG*eA*eG*eA*e[5mC]*dG*d[5mC]*dA*dG*d[5mC]*d[5mC]*dG*dT*dT*dT*eA*eT*eT*eG*eT) [compound 407941]”: the “% Inhibition (human Factor 7 mRNA)” value under setting [3] stood at 65%.

As for “407895 (antisense e[5mC]*eA*e[5mC]*eA*e[5mC]*dA*dG*dA*dT*d[5mC]*dA*dG*d[5mC]*dT*dG*eG*eT*e[5mC]*eA*eT) [compound 407895]”, under setting [3], the “% Inhibition (human Factor 7 mRNA)” value is reported as 72%.

In the case of “422156 (antisense eG*eG*eT*d[5mC]*dA*dG*dG*dG*d[5mC]*dT*dG*dG*dT*dT*dT*dT*dG*eG*eA*eG) [compound 422156]”, the “% Inhibition of human Factor 7 mRNA levels” value under setting [6] turned out to be 38%.
